Source: PMC6458995, “MAP4K4 Inhibition Promotes Survival of Human Stem Cell-Derived Cardiomyocytes and Reduces Infarct Size In Vivo” (Cell Stem Cell, 2019)

Experiments:
Assay in all cases: Dundee kinase panel
Type in all cases: biochemical
Conditions in all cases: for remaining activity at 1 µM: read-out: residual activity
BRSK1 = molecular target: T1, BRSK1 (Homo sapiens, UniProt Q8TDC3)
T1 construct: lines 1-140) and Reaction Biology
T1 sequence (Q8TDC3 1-778): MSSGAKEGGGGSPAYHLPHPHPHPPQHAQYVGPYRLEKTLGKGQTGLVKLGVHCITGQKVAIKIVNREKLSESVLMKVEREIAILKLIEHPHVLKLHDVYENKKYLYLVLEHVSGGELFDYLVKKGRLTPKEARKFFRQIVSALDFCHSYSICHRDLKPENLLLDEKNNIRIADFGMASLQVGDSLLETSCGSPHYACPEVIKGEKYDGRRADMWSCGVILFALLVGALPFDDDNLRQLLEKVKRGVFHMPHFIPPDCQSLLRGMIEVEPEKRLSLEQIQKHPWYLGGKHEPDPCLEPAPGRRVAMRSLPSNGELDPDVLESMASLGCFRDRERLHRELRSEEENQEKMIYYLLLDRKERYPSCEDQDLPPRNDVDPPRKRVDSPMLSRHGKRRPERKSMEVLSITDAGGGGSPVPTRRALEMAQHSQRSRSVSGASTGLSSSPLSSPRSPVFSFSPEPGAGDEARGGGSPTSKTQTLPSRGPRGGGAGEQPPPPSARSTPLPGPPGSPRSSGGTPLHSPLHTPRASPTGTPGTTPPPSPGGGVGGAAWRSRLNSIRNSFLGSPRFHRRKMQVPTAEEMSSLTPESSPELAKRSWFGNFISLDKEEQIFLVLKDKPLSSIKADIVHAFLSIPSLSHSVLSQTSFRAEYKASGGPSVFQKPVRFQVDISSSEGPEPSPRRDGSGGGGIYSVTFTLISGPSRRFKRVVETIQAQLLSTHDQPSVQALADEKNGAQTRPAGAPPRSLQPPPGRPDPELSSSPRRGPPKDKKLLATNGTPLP
Procedure: (§1) Compounds were screened at 1 μM. For key hits, pIC50 values were then determined by HTRF as above. […] Stability in mouse and human liver microsomes was determined by Cyprotex.

DYRK3 = molecular target: T2, DYRK3 (Homo sapiens, UniProt O43781)
T2 construct: lines 1-140) and Reaction Biology
T2 sequence (O43781 1-588): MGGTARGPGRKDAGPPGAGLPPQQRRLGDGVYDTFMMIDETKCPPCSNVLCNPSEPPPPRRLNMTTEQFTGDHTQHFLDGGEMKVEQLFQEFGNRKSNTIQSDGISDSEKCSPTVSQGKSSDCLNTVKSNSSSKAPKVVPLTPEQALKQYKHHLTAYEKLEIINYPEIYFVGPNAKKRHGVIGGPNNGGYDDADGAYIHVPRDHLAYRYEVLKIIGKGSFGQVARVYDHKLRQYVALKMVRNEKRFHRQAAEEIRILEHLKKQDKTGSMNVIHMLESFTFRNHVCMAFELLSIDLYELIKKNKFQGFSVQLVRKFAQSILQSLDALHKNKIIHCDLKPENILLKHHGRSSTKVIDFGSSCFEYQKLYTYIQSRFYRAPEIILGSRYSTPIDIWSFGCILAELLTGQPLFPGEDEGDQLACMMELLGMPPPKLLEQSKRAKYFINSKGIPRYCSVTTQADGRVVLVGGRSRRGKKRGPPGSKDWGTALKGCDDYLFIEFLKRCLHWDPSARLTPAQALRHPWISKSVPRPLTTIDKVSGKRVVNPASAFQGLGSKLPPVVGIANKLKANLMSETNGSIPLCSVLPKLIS
Procedure: as §1

HIPK2 = molecular target: T3, HIPK2 (Homo sapiens, UniProt Q9H2X6)
T3 construct: lines 1-140) and Reaction Biology
Procedure: as §1

MAPKAP-K2 = molecular target: T4, MAPKAP-K2 (Homo sapiens, UniProt P49137)
T4 construct: lines 1-140) and Reaction Biology
Procedure: as §1

MLK3 = molecular target: T5, MLK3 (Homo sapiens, UniProt Q16584)
T5 construct: lines 1-140) and Reaction Biology
Procedure: as §1

PKCz = molecular target: T6, PKCz (Homo sapiens, UniProt Q05513)
T6 construct: lines 1-140) and Reaction Biology
T6 sequence (Q05513 1-592): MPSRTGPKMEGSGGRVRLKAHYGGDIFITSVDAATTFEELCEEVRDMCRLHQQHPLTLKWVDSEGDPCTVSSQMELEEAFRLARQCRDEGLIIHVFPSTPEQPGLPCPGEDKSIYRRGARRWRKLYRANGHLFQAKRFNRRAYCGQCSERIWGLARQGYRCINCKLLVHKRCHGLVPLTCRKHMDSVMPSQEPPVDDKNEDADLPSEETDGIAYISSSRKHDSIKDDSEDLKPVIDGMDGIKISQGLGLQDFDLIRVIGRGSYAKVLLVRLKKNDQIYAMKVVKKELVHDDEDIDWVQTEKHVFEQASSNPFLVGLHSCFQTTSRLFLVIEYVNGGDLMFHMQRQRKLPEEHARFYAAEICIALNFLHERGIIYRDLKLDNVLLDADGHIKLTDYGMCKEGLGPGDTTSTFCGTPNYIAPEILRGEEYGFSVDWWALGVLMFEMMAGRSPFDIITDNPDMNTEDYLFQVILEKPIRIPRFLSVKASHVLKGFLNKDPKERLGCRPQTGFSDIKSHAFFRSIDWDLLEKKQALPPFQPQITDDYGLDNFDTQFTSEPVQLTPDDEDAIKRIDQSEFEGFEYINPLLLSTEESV
Procedure: as §1

TAK1 = molecular target: T7, TAK1 (Homo sapiens, UniProt O43318)
T7 construct: lines 1-140) and Reaction Biology
T7 sequence (O43318 1-303 limits assumed): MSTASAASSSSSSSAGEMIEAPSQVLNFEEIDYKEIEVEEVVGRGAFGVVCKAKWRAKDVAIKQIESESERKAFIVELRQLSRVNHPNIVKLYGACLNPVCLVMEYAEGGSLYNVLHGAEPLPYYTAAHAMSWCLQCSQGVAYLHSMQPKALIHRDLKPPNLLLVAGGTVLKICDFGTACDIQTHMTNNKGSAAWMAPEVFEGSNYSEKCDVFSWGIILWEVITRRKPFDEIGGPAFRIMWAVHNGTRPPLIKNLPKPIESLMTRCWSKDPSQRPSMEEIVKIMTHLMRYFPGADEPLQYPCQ
Procedure: as §1

T4 sequence (P49137 whole entry): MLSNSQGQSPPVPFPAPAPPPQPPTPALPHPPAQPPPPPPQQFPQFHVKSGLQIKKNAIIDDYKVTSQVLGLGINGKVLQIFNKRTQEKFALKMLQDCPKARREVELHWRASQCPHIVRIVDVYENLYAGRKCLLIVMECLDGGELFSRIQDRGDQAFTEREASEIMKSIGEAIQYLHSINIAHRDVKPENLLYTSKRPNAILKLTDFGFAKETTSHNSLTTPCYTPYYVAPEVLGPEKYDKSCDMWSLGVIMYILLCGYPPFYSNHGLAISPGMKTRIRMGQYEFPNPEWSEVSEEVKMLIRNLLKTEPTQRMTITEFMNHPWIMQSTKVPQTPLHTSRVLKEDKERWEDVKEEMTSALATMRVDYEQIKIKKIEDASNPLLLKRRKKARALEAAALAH
T5 sequence (Q16584 whole entry): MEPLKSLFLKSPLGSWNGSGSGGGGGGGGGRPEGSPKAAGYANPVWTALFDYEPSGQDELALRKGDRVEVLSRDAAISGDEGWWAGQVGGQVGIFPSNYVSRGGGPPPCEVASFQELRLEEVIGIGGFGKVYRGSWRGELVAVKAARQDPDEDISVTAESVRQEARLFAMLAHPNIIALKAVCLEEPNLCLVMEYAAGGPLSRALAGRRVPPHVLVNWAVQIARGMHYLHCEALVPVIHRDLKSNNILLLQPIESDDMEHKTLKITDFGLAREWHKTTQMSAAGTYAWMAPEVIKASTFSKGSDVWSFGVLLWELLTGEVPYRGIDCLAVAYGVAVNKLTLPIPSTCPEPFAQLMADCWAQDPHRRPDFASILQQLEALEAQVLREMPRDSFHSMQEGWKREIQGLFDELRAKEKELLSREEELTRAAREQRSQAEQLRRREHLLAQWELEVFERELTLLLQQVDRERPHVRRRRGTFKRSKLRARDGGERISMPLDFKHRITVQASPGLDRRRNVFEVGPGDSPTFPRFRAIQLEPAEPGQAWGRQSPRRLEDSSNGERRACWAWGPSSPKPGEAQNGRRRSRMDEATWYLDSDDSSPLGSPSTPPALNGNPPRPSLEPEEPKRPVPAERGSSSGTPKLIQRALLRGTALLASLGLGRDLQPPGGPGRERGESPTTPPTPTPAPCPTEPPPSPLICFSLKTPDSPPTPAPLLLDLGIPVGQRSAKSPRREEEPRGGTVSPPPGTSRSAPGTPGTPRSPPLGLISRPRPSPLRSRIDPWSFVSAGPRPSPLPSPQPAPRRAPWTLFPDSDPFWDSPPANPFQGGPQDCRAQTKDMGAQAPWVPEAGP
T3 sequence (Q9H2X6 whole entry): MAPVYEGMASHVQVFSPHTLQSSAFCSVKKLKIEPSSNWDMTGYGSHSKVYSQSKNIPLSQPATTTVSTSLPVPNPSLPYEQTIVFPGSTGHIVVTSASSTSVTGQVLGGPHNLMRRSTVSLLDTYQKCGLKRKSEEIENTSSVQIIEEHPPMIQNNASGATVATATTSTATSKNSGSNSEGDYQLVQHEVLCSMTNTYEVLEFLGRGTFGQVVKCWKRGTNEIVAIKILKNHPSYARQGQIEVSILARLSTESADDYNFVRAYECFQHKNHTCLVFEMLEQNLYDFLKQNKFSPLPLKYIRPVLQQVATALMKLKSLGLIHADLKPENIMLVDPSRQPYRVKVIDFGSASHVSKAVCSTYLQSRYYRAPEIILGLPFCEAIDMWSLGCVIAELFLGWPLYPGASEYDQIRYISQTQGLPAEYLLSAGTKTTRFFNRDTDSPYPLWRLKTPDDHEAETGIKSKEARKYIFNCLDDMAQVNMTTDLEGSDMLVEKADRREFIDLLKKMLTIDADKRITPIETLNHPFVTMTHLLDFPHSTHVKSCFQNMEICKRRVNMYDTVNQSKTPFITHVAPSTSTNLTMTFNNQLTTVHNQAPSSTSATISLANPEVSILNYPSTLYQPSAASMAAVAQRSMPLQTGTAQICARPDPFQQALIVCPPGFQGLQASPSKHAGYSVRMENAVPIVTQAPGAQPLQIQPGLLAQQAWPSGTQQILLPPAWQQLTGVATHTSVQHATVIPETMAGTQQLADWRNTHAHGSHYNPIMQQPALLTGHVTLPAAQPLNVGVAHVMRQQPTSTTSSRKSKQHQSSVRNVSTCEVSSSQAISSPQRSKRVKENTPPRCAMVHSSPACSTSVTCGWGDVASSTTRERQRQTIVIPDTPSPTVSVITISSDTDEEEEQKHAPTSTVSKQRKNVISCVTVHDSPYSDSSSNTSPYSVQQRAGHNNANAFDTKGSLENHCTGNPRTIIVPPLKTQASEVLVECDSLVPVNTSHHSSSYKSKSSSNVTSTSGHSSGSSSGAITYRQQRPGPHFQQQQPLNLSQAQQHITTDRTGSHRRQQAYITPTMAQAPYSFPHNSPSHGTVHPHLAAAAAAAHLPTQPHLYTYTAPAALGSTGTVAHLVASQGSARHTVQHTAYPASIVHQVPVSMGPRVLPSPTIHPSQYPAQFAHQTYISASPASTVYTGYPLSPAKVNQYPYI

SMILES | remaining activity at 1 µM (BRSK1) [%] | remaining activity at 1 µM (DYRK3) [%] | remaining activity at 1 µM (HIPK2) [%] | remaining activity at 1 µM (MAPKAP-K2) [%] | remaining activity at 1 µM (MLK3) [%] | remaining activity at 1 µM (PKCz) [%] | remaining activity at 1 µM (TAK1) [%] | residual activity (BRSK1; 1 μM) [%] | residual activity (DYRK3; 1 μM) [%] | residual activity (HIPK2; 1 μM) [%] | residual activity (MAPKAP-K2; 1 μM) [%] | residual activity (MLK3; 1 μM) [%] | residual activity (PKCz; 1 μM) [%] | residual activity (TAK1; 1 μM) [%]
COCCOc1ccc(-c2cn(-c3ccccc3)c3nc[nH]c(=O)c23)cc1 [DMX-5804, 5-[4-(2-methoxy-ethoxy)-phenyl]-7-phenyl-3,7-dihydro-pyrrolo[2,3-d]pyrimidin-4-one] | 97 | 128 | 102 | 105 | 12 | 121 | 61 | – | – | – | – | – | – | –
Oc1ncnc2c1c(-c1ccccc1)cn2-c1ccccc1 [F1386-0303, 5,7-diphenyl-7H-pyrrolo[2,3-d]pyrimidin-4-ol] | 84 | 101 | 87 | 101 | 30 | 108 | 102 | – | – | – | – | – | – | –
Nc1ncc(C(=O)NC2CN(C(=O)C3CC3)C2)c2ccc(-c3cccc(F)c3)nc12 [GNE-495] | – | – | – | – | – | – | – | 71 | 83 | 96 | 101 | 38 | 82 | 31
O=C1Nc2ccc(I)cc2/C1=C/c1cc(Br)c(O)c(Br)c1 [GW5074] | 68 | 14 | 134 | 81 | 17 | 88 | 92 | – | – | – | – | – | – | –
O=C1Cc2c([nH]c3ccc(Br)cc23)-c2ccccc2N1 [Kenpaullone] | 55 | 72 | 103 | 89 | 21 | 105 | 113 | – | – | – | – | – | – | –
